According to patent US20260327255A1, “LIGAND-DIRECTED COVALENT MODIFICATION OF AMINO ACID SIDE CHAINS USING CYCLIC IMINE MANNICH ELECTROPHILES” (Purdue Research Foundation, priority 2022, published 2026):
Substitutions are numbered along the chain they refer to. “Also recorded” adds a separate entry of the source.

How the values were obtained:
[1] = Stability of cyclic imines in aqueous media (LC/MS); format: physicochemical; settings: 96-hours incubation in PBS, 0.1M HCl, 0.1M NaOH
Experimental: To validate the stability of cyclic imines as covalent warheads, imines 1-4 were evaluated by LC/MS after 96-hours incubation in PBS, 0.1M HCl, and 0.1M NaOH (Table 1).

[2] = Amino acid mimetic reactivity, LC/MS: thiol (cysteine mimic); settings: 100 mM, PBS pH 7, 37° C., 24 h
Experimental: (§1) Cyclic imine 1 was incubated with 100 mM compounds in PBS (pH 7) at 37° C. for 24 hours and then analyzed by LC/MS. (A) Compounds include β-mercaptoethanol, imidazole, isopropanol, n-butylamine, propionic acid, 3-methyl indole, and N-ethyl pyrrole (pyrrole-lysine). UV LC/MS traces for (B) β-mercaptoethanol, (C) 3-methyl indole, and (D) N-ethyl pyrrole. LR-ESI-MS: imine-thiol product m/z calc. for [M+H]^+ 231.1; found: 231.2. Imine-indole product m/z calc. for [M+H]^+: 284.2; found: 284.2. Imine-pyrrole product m/z calc. for |M+H|^+: 248.2; found: 248.2.
(§2) To assess the selectivity to other amino acids, we tested compounds mimicking amino acid side chain functional groups, including β-mercaptoethanol (cysteine), imidazole (histidine), isopropanol (serine/threonine), n-butylamine (lysine), propionic acid (aspartic acid/glutamic acid), 3-methyl indole (tryptophan), and N-ethyl pyrrole (pyrrole-lysine). […] Conjugation to thiols was expected based on previous reports (Minakawa et al. J. Org. Chem. 2008, 73(21), 8669-8672; Cavaca et al. Mol. 2022, 27(5), 1673).

[3] = molecular target: T1, recombinant CBX8 chromodomain (ChD) (Homo sapiens, UniProt Q9HC52); experiment: Labeling of CBX8 chromodomain with imine 1 (mass spectrometry); format: binding; settings: 50 mM imine, 10 μM CBX8 ChD, PBS pH 7, 0.02% Tween 20, room temperature overnight
T1 construct: expected mass of CBX8 ChD 8792 Da
T1 sequence (Q9HC52 8-69 limits assumed): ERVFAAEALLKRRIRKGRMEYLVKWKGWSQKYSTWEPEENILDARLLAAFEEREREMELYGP
Experimental: (§3) To confirm reactivity and selectivity with a peptide context, imine 1 (50 mM) was incubated with the tyrosine-containing 8-mer peptide angiotensin II ([…]) (10 mM) (FIG. 10). The combined yield of mono-labeled and di-labeled angiotensin II was ~45% as quantified by LC/MS. Cyclic imine 1 (50 mM) was also incubated with a small protein (recombinant CBX8 chromodomain (ChD), which contains multiple tyrosines and tryptophans; 10 μM in PBS buffer (pH=7; 0.02% Tween 20)) at room temperature overnight. With overnight incubation, two to three additions of the imine were observed by mass spectrometry.

[4] = Reaction of cyclic imines with N-acetyl-L-tyrosine methylamide (HPLC/LC-MS); settings: for second-order rate constant: pseudo-first order conditions
Experimental: The reaction was monitored using liquid chromatography/mass spectrometry (LC/MS).
(§4) Reactions were conducted under pseudo first order conditions with an excess of one reactant. The reduction in the concentration of the limiting reactant A was measured at various time points by HPLC analysis. Rates of imine 1 with N-Ac-Tyr-NMe, indole-3-butyric acid, and 1H-pyrrole-1-propionic acid and of imine 2 with N-Ac-Tyr-NMe were measured.
(§5) Reaction of imine 1 (5 mM) with (A) N-Ac-Tyr-NHMe (100 mM) or (B) indole-3-butyrate (100 mM) at indicated time points.
(§6) Reaction of (A) imine 1 (5 mM) with N-Ac-Tyr-NHMe (100 mM) at 37° C. or (B) at room temperature. (C) imine 2 (5 mM) with N-Ac-Tyr-NHMe (100 mM) at 37° C. (D) imine 1 (5 mM) with indole-3-butyrate (100 mM) (E) imine 1 (10 mM) with 1 mM 1H-pyrrole-1-propionate (F) iminium 6 (5 mM) with N-Ac-Tyr-NHMe (100 mM) at 37° C. at pH 7 (G) iminium 6 (5 mM) with N-Ac-Tyr-NHMe (100 mM) at 37° C. at pH 3 at indicated time points.
Several cyclic imines (5 mM) were incubated with a simple tyrosine analog N-acetyl-L-tyrosine methylamide (Ac-Tyr-NHMe) in PBS pH 7 at 37° C. (FIGS. 2-3). The reactivity was quantitated by UV integration on HPLC with liquid chromatography/mass spectrometry (LC/MS) confirmation of reaction product identity (FIG. 4). Under these pseudo-first order reaction conditions, reaction half-lives and second-order rate constants were determined.

angiotensin II = experiment: Labeling of angiotensin II with imine 1 (LC/MS); settings: 50 mM imine 1, 10 mM angiotensin II, 16 hours
Experimental: UV trace of reaction mixture of compound 1 (cyclic imine 1) with angiotensin II. […] (Mono cyclic imine-angiotensin II conjugate peak at 2 min): calc. [M+H]^+: 1199.2, found [M+H]^+: 1199.3, [M+2H]^2+: 600.3, [M+3H]^3+: 400.6. (Di-cyclic imine-angiotensin II conjugate peak at 2.1 min): calc. [M+H]^+: 1351.2, found [M+H]^+: 1351.8, [M+2H]^2+: 676.4, [M+3H]^3+: 451.0. (Unmodified angiotensin II (8-mer) peak at 2.2 min): m/z calc. [M+H]^+: 1047.2, found [M+H]^+: 1047.2, [M+2H]^2+: 524., [M+3H]^3+: 350.
as §3

[5] = Effect of thiols on tyrosine labeling with imine 1; settings: 5 mM imine, 100 mM Tyr, 5 mM cysteine, vs control
Experimental: Cyclic imine 1 (5 mM) was incubated with 100 mM acetyl tyrosine methyl amide and 5 mM […] (in the presence of 5 mM TCEP). Reaction yield was quantified based on UV integrations of Mannich product at 4 h, 9 h, 17 h, 24 h, and 32 h. Imine consumption rate was quantified based on the UV integration of Mannich product at 4 h, 9 h, 17 h, 24 h, and 32 h.
Thiol addition to the imine is reversible, yet this reaction may limit the desired reactivity of imines to tyrosines in cellular contexts where glutathione concentrations can be 1-10 mM (Meister et al. J. Biol. Chem. 1988, 263(33), 17205-17208; Forman et al. Mol. Aspects Med. 2009, 30(1-2), 1). To evaluate this reversibility, the pre-formed thioaminal product of 1 with N-acetyl-cysteine methyl amide was treated with either glutathione (1 M) or Ac-Tyr-NHMe (100 mM). […] To evaluate potential effects of cellular thiols on tyrosine labeling rate, the cyclic imine-Tyr reaction (at 5 mM and 100 mM, respectively) was evaluated over time in the presence of cysteine (5 mM) (FIG. 9).

[6] = Amino acid mimetic reactivity, LC/MS: pyrrole (pyrrole-lysine mimic); settings: 100 mM, PBS pH 7, 37° C., 24 h
Experimental: as §1, §2

[7] = Amino acid mimetic reactivity, LC/MS: indole (tryptophan mimic); settings: 100 mM, PBS pH 7, 37° C., 24 h
Experimental: as §1, §2

[8] = Reaction of imine 1 with indole-3-butyrate (tryptophan mimic)
Experimental: as §4, §5, §6

[9] = Reaction of imine 1 with 1H-pyrrole-1-propionate (pyrrole-Lys mimic)
Experimental: as §4, §6
We also tested 1 with N-ethyl pyrrole as a mimic of pyrrolated lysine, a lesser-known post-translational modification (Miyashita et al. Sci. Rep. 2014, 4, 5343; Chikazawa et al. J. Biol. Chem. 2020, 295(22), 7697-7709). […] Previous work with N-pyrrolyl alanine derivatives has shown fast and selective Pictet-Spengler reactions with aldehyde-containing biomolecules (Pomplun et al. Angew. Chemie Int. Ed. 2019, 58(11), 3542-3547).^50 Under conditions of 10 mM cyclic imine 1 with 1 mM 1H-pyrrole-1-propionate (as a soluble pyrrole-Lys mimic), we determined a second order rate constant of 5.9×10^−2 M^−1 s^−1 (FIGS. 3 and 5).

[10] = Stability of cyclic imine inhibitor P1b; format: physicochemical
Experimental: The sample was split, and one portion was further reduced with sodium cyanoborohydride. LC/MS: UV traces, low resolution mass spectrum. […] Stability was similarly assayed with 24-hour incubation in either 100 mM HCl or 100 mM NaOH.

[11] = molecular target: T2, wild-type CBX8 chromodomain (Homo sapiens, UniProt Q9HC52); experiment: Time-dependent fluorescence polarization displacement assay, CBX8; format: binding
T2 construct: recombinant CBX8 chromodomain (ChD)
T2 sequence (Q9HC52 11-69 limits assumed): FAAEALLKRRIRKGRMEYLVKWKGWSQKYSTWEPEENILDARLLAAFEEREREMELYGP
Experimental: (A) The fraction of labeled protein as determined by UV integration on reverse phase HPLC. CBX8 ChD and P2 were incubated at 10 μM each for 16 hours at 37° C. UV absorption measured at 215 nm. (B) Mass spectra of CBX8 ChD treated overnight with inhibitor P2 (top, red) and control CBX8 ChD (bottom, green). […] (C) Time dependent fluorescence polarization displacement assays of indicated chromodomains with P2. Assays were conducted using SW2_123 as an FP probe (FIG. S15) at 100 nM. All proteins were used at 2 μM in PBS (pH 7), 0.02% Tween 20. Error bars represent s.d.
A fluorescence polarization (FP) displacement assay was used to evaluate the covalent binding of cyclic imine warhead containing inhibitors.
To validate labeling of the targeted tyrosine residue (Y39), this amino acid was mutated to phenylalanine, which is structurally similar but lacks reactivity to the cyclic imine.

[12] = test system: HOXA9 gene expression in THP1 cells; experiment: qRT-PCR analysis of HOXA9 gene expression in THP1 cells; format: cell-based
Experimental: FIG. 14 Cellular activity of covalent, cyclic imine inhibitors to CBX8. qRT-PCR analysis of HOXA9 gene expression in THP1 cells after 48 h of compound treatment at the indicated dose. N=3. Error bars represent s.d. Statistical significance determined by Student's T test. *=p<0.05, **=p<0.01, ***=p<0.001, ****=p<0.0001.
FIG. 15 Cellular activity of covalent, cyclic imine inhibitors to CBX8. (A) qRT-PCR analysis of HOXA9 gene expression in THP1 cells after 48 h of compound treatment at the indicated dose. N=3. Error bars represent s.d. Statistical significance calculated using student's t-test. **=p<0.01, ****=p<0.0001. (B) qRT-PCR analysis of HOXA9 gene expression in THP1 cells treated with increasing doses of compound for 48 h. N=3. Error bars represent s.d.
Imine inhibitors were assessed for improved cellular activity using a disease-relevant cell model. […] Using this same model, we compared the covalent inhibitors with non-covalent inhibitor SW2_110A in THP1 cell lines. […] The two optimal inhibitors P1bP and P2 were subsequently tested for dose-dependency in this cellular assay. Dose curves indicate that these covalent inhibitors have 30 to 100-fold improvement of cellular activity compared to the non-covalent inhibitor (FIG. 15B).

mutant CBX8 (Y39F) = molecular target: T3, mutant CBX8 (Y39F) (Homo sapiens, UniProt Q9HC52, Y39F); experiment: Time-dependent fluorescence polarization displacement assay, CBX8 Y39F; format: binding
T3 construct: Time dependent fluorescence polarization displacement assays of indicated chromodomains with P2
T3 sequence (Q9HC52 11-69 Y39F limits assumed): T2 sequence (Q9HC52 11-69 limits assumed) with Y29F
Experimental: (A) The fraction of labeled protein as determined by UV integration on reverse phase HPLC. CBX8 ChD and P2 were incubated at 10 μM each for 16 hours at 37° C. UV absorption measured at 215 nm. (B) Mass spectra of CBX8 ChD treated overnight with inhibitor P2 (top, red) and control CBX8 ChD (bottom, green). Observed masses are shown (expected average mass for CBX8 ChD=8792 Da). The observed mass difference (895 Da) corresponds to the expected mass change of 901 Da. (C) Time dependent fluorescence polarization displacement assays of indicated chromodomains with P2. Assays were conducted using SW2_123 as an FP probe (FIG. S15) at 100 nM. All proteins were used at 2 μM in PBS (pH 7), 0.02% Tween 20. Error bars represent s.d.
To validate labeling of the targeted tyrosine residue (Y39), this amino acid was mutated to phenylalanine, which is structurally similar but lacks reactivity to the cyclic imine. […] Similarly, for CBX2 ChD, no change in apparent affinity was observed over time in the FP assay (FIG. 13C), and no labeled protein was detected by MS.

For `O=C1C=NC2CCCCC2N1` (stereo not drawn) [Compound 1], the “stability (in words)” value [1] was “stable under all conditions”, the “conjugate formation with β-mercaptoethanol” value [2] was “Stable conjugates” and the “number of additions of the imine” value [3] was “two to three”. The “reaction half-life (t1/2)” value ([4]; 5 mM imine, 100 mM Ac-Tyr-NHMe, PBS pH 7, 37° C.) was 8 ± 0.3 h, the second-order rate constant ([4]; 37° C.) was 0.00024 M⁻¹ s⁻¹ and the second-order rate constant ([4]; R.T.) was 0.00015 M⁻¹ s⁻¹. The “combined yield of mono-labeled and di-labeled angiotensin II” value (angiotensin II) was ~ 45%, the “effect of cysteine on tyrosine-imine reaction rate” value [5] was “slightly slowed the reaction rate” and the “conjugate formation with N-ethyl pyrrole” value [6] was “Stable conjugates”. The “conjugate formation with 3-methyl indole” value [7] was “Stable conjugates; also recorded: multiple products”, the “fold lower rate constant than to tyrosine” value ([8]; indole-3-butyrate vs tyrosine) was 2 fold and the “second order rate constant (k2)” value ([8]; indole-3-butyrate, 37° C.) was 0.00011 M⁻¹ s⁻¹. For the same compound, the “second order rate constant” value ([9]; 10 mM imine 1, 1 mM 1H-pyrrole-1-propionate) was 0.059 M⁻¹ s⁻¹ and the “increase in rate constant relative to Tyr” value ([9]; 1H-pyrrole-1-propionate vs Tyr) was ~ 200 fold.
With `CC[C@H](C)[C@H](NC(=O)[C@@H](NC(=O)c1ccc(Oc2ccccc2)cc1)C1CCCC1)C(=O)N[C@@H](CCCCN(CC)CCCCCCN1CCN=CC1=O)C(=O)N[C@@H](CO)C(N)=O` [Compound P1b] the degradation ([10]; 100 mM HCl, 100 mM NaOH and neutral PBS, 96 h, room temperature) was “no significant degradation”, the “conversion of imine to amine on NaBH3CN after 24-hour incubation in PBS” value ([10]; 24 h PBS, then sodium cyanoborohydride (10 eq.)) was “full conversion of imine to amine” and the “time-dependent change of potency (IC50)” value ([11]; further incubation) was “time-dependent increase of potency”. The “IC50 without additional incubation time (in words)” value ([11]; no additional incubation) was “comparable IC50 values”, the “reduction of HOXA9 gene expression, 10 μM P1b vs 100 μM SW2_110A” value ([12]; 10 μM P1b vs 100 μM SW2_110A) was “reduced gene expression to a similar extent as 100 μM SW2_110A” and the “reduction of HOXA9 expression versus non-covalent inhibitor” value ([12]; THP1, 48 h, vs SW2_110A) was “most effective at reducing HOXA9 gene expression”. The IC50 (mutant CBX8 (Y39F)) was 7.3 µM.
